Experimental data: US12227500B2, “Substituted pyrrolo[2,3-b]pyridines for suppressing toxic endoplasmic reticulum stress” (THE TRUSTEES OF COLUMBIA UNIVERSITY IN THE CITY OF NEW YORK, priority 2018, dated 2025)
Like-named read-outs stand apart in the source and are kept apart here.

Columns and labels:
Test in all cases: Radiolabeled ATP kinase assay, panel of 60 kinases (Table S5)
Assay type in all cases: biochemical
[1] = target: T1, panel of 60 human kinases (Homo sapiens, UniProt P08581); details: c-MET; 0.1 μM; 10 μM ATP; read-out: % Enzyme Activity (relative to DSMO controls)
T1 construct: purchased Reaction Biology Corp
Summary of the method: (§1)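 Compounds at two concentrations, 0.1 μM and 0.5 μM, were screened for inhibition of 60 kinases in cell-free assays read out by radiolabeled ATP.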

[2] = target: T2, panel of 60 human kinases (Homo sapiens, UniProt P21802); details: FGFR2; 0.1 μM; 10 μM ATP; read-out: % Enzyme Activity (relative to DSMO controls)
T2 construct: purchased Reaction Biology Corp
T2 sequence (P21802 22-821): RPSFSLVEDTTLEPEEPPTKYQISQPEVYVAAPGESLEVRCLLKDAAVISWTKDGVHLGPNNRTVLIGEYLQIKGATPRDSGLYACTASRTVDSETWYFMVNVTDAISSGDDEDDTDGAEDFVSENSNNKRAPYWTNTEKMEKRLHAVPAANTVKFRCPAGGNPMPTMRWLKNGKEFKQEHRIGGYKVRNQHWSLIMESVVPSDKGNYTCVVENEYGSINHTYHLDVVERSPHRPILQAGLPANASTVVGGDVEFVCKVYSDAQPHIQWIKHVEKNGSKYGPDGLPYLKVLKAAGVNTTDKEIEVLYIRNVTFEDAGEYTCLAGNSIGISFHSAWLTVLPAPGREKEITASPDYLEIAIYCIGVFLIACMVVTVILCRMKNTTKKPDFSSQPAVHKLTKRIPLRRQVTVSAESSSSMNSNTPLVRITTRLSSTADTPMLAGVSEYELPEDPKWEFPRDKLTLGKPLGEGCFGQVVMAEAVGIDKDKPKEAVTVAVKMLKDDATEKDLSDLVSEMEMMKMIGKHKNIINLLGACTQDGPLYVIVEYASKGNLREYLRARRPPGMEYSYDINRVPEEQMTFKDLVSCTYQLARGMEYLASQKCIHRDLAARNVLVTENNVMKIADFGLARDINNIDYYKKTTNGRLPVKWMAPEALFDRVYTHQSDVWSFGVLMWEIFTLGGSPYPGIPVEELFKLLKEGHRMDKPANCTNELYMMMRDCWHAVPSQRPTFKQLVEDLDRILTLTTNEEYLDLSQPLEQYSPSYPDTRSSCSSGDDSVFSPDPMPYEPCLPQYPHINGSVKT
Summary of the method: as §1

[3] = target: T3, panel of 60 human kinases (Homo sapiens, UniProt Q9UM73); details: ALK; 0.1 μM; 10 μM ATP; read-out: % Enzyme Activity (relative to DSMO controls)
T3 construct: purchased Reaction Biology Corp
Summary of the method: as §1

[4] = target: T4, panel of 60 human kinases (Homo sapiens, UniProt P42684); details: ABL2/ARG; 0.1 μM; 10 μM ATP; read-out: % Enzyme Activity (relative to DSMO controls)
T4 construct: purchased Reaction Biology Corp
T4 sequence (P42684 whole entry): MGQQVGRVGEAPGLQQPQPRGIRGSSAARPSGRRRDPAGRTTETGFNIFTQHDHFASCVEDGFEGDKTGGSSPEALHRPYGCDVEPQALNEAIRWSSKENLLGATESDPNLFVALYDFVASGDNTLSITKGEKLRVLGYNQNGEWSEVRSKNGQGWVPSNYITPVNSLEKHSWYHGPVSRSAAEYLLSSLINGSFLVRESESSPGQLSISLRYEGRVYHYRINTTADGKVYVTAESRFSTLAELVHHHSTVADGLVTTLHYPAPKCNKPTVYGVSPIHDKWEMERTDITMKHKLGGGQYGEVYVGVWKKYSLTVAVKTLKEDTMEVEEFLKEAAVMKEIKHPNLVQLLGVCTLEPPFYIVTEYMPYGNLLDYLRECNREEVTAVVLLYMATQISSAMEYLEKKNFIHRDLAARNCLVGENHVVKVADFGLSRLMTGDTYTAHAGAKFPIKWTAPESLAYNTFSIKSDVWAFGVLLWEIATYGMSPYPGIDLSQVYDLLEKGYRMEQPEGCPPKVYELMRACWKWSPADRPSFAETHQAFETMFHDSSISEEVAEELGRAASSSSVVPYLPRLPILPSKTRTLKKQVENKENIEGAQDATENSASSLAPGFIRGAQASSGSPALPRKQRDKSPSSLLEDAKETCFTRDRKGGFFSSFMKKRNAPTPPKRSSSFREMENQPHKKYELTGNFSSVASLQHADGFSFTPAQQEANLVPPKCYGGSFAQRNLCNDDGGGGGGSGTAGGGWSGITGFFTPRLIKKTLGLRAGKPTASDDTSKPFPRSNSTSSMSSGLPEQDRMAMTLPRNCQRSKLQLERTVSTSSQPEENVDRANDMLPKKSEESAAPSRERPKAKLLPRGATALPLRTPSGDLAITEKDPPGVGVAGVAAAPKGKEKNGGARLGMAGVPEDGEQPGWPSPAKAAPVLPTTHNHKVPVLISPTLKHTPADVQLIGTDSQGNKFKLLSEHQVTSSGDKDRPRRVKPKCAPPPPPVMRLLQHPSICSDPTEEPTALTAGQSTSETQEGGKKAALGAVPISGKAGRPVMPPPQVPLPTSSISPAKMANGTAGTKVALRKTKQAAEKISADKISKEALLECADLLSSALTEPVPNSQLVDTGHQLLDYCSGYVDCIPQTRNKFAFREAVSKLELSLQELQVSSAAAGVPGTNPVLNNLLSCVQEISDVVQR
Summary of the method: as §1

[5] = target: T5, panel of 60 human kinases (Homo sapiens, UniProt Q00535); details: 0.1 μM, 10 μM ATP, read-out: % Enzyme Activity (relative to DSMO controls)
T5 construct: purchased Reaction Biology Corp
Summary of the method: as §1

[6] = target: T6, panel of 60 human kinases (Homo sapiens, UniProt P49840); details: GSK3a; 0.1 μM; 10 μM ATP; read-out: % Enzyme Activity (relative to DSMO controls)
T6 construct: purchased Reaction Biology Corp
Summary of the method: as §1

[7] = target: T7, panel of 60 human kinases (Homo sapiens, UniProt O15264); details: P38d/MAPK13; 0.1 μM; 10 μM ATP; read-out: % Enzyme Activity (relative to DSMO controls)
T7 construct: purchased Reaction Biology Corp
T7 sequence (O15264 1-365): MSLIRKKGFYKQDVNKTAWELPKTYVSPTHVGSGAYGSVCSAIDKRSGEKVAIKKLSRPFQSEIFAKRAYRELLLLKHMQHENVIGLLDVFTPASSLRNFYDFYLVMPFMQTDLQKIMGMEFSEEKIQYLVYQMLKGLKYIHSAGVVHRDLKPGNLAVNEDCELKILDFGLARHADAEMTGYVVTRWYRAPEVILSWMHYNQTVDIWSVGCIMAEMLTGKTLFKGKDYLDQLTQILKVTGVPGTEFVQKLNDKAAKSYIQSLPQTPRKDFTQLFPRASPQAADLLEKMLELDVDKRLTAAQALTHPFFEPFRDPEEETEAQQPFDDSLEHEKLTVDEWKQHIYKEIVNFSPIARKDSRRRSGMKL
Summary of the method: as §1

[8] = target: T8, panel of 60 human kinases (Homo sapiens, UniProt P11802); details: 0.1 μM, 10 μM ATP, read-out: % Enzyme Activity (relative to DSMO controls)
T8 construct: purchased Reaction Biology Corp
T8 sequence (P11802 whole entry): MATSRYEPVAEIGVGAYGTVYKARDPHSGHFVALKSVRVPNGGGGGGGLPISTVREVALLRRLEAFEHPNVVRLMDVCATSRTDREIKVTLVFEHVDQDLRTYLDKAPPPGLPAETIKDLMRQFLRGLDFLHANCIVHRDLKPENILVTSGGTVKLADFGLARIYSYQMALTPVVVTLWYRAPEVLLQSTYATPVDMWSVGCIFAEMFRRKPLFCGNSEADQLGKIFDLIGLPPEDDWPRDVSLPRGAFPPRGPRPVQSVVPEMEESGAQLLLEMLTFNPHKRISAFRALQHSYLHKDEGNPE
Summary of the method: as §1

[9] = target: T9, panel of 60 human kinases (Homo sapiens, UniProt Q00526); details: CDK3/cyclin E; 0.1 μM; 10 μM ATP; read-out: % Enzyme Activity (relative to DSMO controls)
T9 construct: purchased Reaction Biology Corp
T9 sequence (Q00526 whole entry): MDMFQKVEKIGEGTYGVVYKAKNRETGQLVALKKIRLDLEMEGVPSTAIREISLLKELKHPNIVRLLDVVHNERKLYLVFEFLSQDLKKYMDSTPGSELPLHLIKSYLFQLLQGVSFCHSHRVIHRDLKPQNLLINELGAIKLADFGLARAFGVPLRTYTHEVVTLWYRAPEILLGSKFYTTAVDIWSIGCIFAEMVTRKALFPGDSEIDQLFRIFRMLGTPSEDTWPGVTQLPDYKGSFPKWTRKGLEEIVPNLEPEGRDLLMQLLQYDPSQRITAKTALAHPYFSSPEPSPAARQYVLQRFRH
Summary of the method: as §1

[10] = target: T10, panel of 60 human kinases (Homo sapiens, UniProt Q00534); details: 0.1 μM, 10 μM ATP, read-out: % Enzyme Activity (relative to DSMO controls)
T10 construct: purchased Reaction Biology Corp
T10 sequence (Q00534 whole entry): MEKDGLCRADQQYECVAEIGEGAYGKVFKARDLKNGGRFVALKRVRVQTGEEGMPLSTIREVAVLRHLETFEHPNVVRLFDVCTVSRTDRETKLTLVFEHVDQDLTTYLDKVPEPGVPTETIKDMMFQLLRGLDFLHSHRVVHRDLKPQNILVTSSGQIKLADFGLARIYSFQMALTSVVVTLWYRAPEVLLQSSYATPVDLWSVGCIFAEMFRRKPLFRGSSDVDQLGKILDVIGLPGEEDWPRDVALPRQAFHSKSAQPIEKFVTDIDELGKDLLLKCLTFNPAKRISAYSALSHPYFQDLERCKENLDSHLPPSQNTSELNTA
Summary of the method: as §1

[11] = target: T11, panel of 60 human kinases (Homo sapiens, UniProt Q08345); details: DDR1; 0.1 μM; 10 μM ATP; read-out: % Enzyme Activity (relative to DSMO controls)
T11 construct: purchased Reaction Biology Corp
T11 sequence (Q08345 19-913): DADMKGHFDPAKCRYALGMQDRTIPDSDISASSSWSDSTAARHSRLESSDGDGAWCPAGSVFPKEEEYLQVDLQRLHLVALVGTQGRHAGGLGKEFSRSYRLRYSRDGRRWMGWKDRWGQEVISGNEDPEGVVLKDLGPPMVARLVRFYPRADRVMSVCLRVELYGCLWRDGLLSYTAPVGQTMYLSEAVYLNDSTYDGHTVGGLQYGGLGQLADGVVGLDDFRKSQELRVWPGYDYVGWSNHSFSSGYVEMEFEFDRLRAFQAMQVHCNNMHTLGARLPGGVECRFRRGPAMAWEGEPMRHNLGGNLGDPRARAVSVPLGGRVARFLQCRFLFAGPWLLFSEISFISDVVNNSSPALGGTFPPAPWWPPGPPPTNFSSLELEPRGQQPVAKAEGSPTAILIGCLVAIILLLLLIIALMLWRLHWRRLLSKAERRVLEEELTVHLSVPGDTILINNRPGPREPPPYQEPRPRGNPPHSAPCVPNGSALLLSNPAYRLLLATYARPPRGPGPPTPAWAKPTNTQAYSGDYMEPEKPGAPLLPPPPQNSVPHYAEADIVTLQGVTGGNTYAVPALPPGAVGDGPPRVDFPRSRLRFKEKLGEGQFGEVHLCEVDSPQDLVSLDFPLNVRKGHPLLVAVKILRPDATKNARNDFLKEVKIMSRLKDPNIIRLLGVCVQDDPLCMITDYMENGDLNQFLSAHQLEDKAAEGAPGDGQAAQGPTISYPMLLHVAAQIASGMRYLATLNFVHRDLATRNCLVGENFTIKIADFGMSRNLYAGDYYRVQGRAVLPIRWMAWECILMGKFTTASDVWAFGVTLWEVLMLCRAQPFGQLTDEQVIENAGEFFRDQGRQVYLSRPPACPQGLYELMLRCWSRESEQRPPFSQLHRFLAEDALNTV
Summary of the method: as §1

[12] = target: T12, panel of 60 human kinases (Homo sapiens, UniProt O95819); details: HGK/MAP4K4; 0.1 μM; 10 μM ATP; read-out: % Enzyme Activity (relative to DSMO controls)
T12 construct: purchased Reaction Biology Corp
T12 sequence (O95819 whole entry): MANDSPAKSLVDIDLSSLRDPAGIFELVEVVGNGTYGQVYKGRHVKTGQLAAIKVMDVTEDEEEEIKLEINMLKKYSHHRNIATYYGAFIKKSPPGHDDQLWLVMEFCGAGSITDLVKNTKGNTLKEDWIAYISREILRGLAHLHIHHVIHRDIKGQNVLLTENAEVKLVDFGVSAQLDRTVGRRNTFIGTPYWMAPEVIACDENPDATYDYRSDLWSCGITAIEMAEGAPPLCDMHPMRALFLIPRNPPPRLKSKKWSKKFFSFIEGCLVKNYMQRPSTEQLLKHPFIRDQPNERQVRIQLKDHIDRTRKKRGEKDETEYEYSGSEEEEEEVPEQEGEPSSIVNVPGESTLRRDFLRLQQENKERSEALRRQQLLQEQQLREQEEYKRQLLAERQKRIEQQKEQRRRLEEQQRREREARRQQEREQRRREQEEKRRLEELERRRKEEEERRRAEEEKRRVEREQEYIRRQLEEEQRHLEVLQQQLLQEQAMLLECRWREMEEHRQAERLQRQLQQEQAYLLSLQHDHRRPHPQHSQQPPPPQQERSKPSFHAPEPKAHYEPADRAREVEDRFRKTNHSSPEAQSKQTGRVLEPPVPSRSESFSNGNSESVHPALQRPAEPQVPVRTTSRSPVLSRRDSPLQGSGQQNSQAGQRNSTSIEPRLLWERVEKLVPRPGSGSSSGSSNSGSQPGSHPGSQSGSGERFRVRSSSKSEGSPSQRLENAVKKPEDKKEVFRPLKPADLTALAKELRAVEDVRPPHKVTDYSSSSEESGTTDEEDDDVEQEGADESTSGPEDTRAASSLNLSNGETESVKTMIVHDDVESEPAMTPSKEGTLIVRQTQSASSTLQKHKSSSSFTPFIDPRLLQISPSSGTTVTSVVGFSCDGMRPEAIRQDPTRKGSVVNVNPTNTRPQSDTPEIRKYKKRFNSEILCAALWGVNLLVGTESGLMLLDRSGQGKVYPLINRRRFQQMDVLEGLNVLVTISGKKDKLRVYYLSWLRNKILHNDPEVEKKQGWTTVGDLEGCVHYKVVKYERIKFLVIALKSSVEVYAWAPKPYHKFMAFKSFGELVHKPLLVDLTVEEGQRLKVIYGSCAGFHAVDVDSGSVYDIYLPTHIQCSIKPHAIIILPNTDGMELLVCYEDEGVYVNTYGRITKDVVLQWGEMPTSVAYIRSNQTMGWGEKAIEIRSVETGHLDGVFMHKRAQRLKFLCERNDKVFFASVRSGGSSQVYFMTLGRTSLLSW
Summary of the method: as §1

[13] = target: T13, panel of 60 human kinases (Homo sapiens, UniProt Q9Y4K4); details: KHS/MAPK4K5; 0.1 μM; 10 μM ATP; read-out: % Enzyme Activity (relative to DSMO controls)
T13 construct: purchased Reaction Biology Corp
Summary of the method: as §1

[14] = target: T14, panel of 60 human kinases (Homo sapiens, UniProt P00519); details: ABL1; 0.1 μM; 10 μM ATP; read-out: % Enzyme Activity (relative to DSMO controls)
T14 construct: purchased Reaction Biology Corp
Summary of the method: as §1

SMILES	remaining activity at 0.1 µM [1] [%]	remaining activity at 0.1 µM [2] [%]	remaining activity at 0.1 µM [3] [%]	remaining activity at 0.1 µM [4] [%]	remaining activity at 0.1 µM ([5]; CDK5/p25) [%]	remaining activity at 0.1 µM ([5]; CDK5/p35) [%]	remaining activity at 0.1 µM [6] [%]	remaining activity at 0.1 µM [7] [%]	remaining activity at 0.1 µM ([8]; CDK4/cyclin D1) [%]	remaining activity at 0.1 µM ([8]; CDK4/cyclin D3) [%]	remaining activity at 0.1 µM [9] [%]	remaining activity at 0.1 µM ([10]; CDK6/cyclin D1) [%]	remaining activity at 0.1 µM ([10]; CDK6/cyclin D3) [%]	remaining activity at 0.1 µM [11] [%]	remaining activity at 0.1 µM [12] [%]	remaining activity at 0.1 µM [13] [%]	remaining activity at 0.1 µM [14] [%]
CN1CCN(Cc2ccc(-c3cnc4[nH]cc(-c5ccc6[nH]ccc6c5)c4c3)cc2)CC1 [Compound 1, 3-(1H-Indol-5-yl)-5-(4-((4-methylpiperazin-1-yl)methyl)phenyl)-1H-pyrrolo[2,3-b]pyridine, reference compound]	55.9	52.9	25.4	54.9	52.8	52.3	90.8	112	51	49.1	89.1	47.2	66.1	47.5	1.96	11	46.6
CN1CCN(Cc2ccc(-c3cnc4[nH]cc(-c5ccccc5Cl)c4c3)cc2)CC1 [Compound 7as, 3-(2-Chlorophenyl)-5-(4-((4-methylpiperazin-1-yl)methyl)phenyl)-1H-pyrrolo[2,3-b]pyridine]	84.1	41.1	70.5	0.99	48.6	36	96	113	31.9	39.7	85.5	15.6	36.1	35.6	-0.5	0.89	5.92
CN1CCN(Cc2ccc(-c3cnc4[nH]cc(-c5cnn(Cc6ccccc6)c5)c4c3)cc2)CC1 [Compound 7ah, 3-(1-Benzyl-1H-pyrazol-4-yl)-5-(4-((4-methylpiperazin-1-yl)methyl)phenyl)-1H-pyrrolo[2,3-b]pyridine]	86.6	73.8	28.8	95.1	52	46.3	32.5	109	25.9	26	65.2	28.6	33.2	38.3	5.18	6.09	81
CN1CCN(Cc2ccc(-c3cnc4[nH]cc(-c5ccncc5)c4c3)cc2)CC1 [Compound 7n, 5-(4-((4-Methylpiperazin-1-yl)methyl)phenyl)-3-(pyridin-4-yl)-1H-pyrrolo[2,3-b]pyridine]	102	94	94.1	91.5	69.2	57.5	75.3	105	27.8	37	72.3	23.4	51.8	79.7	35	30.9	88.4
